Read-outs that look alike come from different tables or passages of the source.
Target: human TYK2 (JH2domain-pseudokinase) (Homo sapiens (Human), UniProt P29597)
Assay: TYK2 JH2 Domain Binding Assay (KINOMEscan)
[1] = Table 4, JH2 binding assay, read-out: JH2 Kd
[2] = Table 5, Tyk2 JH2 Domain Binding Assay, read-out: JH2 Kd

human TYK2 (JH2domain-pseudokinase), sequence (P29597 556-888): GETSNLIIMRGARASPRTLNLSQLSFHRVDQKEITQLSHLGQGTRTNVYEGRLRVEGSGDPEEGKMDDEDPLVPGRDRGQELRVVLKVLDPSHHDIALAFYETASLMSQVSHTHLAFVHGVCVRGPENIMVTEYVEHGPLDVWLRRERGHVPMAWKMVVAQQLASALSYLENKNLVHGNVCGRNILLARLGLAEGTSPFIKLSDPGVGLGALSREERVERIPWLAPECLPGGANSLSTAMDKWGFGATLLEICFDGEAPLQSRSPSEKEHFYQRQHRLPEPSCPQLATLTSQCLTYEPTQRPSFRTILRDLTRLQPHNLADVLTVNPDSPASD

Question: `COc1c(F)cccc1Nc1cc(NC(=O)C2CC2)nc2[nH]n(C)c(=O)c12` [Compound I-48, N-(4-((3-fluoro-2-methoxyphenyl)amino)-2-methyl-3-oxo-2,3-dihydro-1H-pyrazolo[3,4-b]pyridin-6-yl)cyclopropanecarboxamide] was tested. Which Kd [1] did it give?
Answer: 0.5 to 1 nM

Question: `COc1c(Cl)cccc1Nc1cc(Nc2ccc(C)c(C#N)n2)nc2[nH]n(C)c(=O)c12` [Compound I-132, 6-((4-((3-chloro-2-methoxyphenyl)amino)-2-methyl-3-oxo-2,3-dihydro-1H-pyrazolo[3,4-b]pyridin-6-yl)amino)-3-methylpicolinonitrile] was tested. Which Kd [1] did it give?
Answer: 0.1 to 0.5 nM

Question: For `CCc1nn(-c2cccc(-c3nnn(C)n3)c2OC)c2cc(NC(=O)C3CC3)ncc12` [XVI-4, N-(3-ethyl-1-(2-methoxy-3-(2-methyl-2H-tetrazol-5-yl)phenyl)-1H-pyrazolo[4,3-c]pyridin-6-yl)cyclopropanecarboxamide], which Kd [2] is on record?
Answer: 0.1 to 1 nM

Question: `COc1c(F)cccc1Nc1cc(Nc2ccccn2)nc2[nH]n(C)c(=O)c12` [Compound I-80, 4-((3-fluoro-2-methoxyphenyl)amino)-2-methyl-6-(pyridin-2-ylamino)-1,2-dihydro-3H-pyrazolo[3,4-b]pyridin-3-one] was tested. Which Kd [1] did it give?
Answer: 1 to 10 nM

Question: Which Kd [1] does the source give for `COc1c(F)cccc1Nc1cc(Nc2cc(C)c(F)cn2)nc2[nH]n(C)c(=O)c12` [Compound I-73, 4-((3-fluoro-2-methoxyphenyl)amino)-6-((5-fluoro-4-methylpyridin-2-yl)amino)-2-methyl-1,2-dihydro-3H-pyrazolo[3,4-b]pyridin-3-one] here?
Answer: 1 to 10 nM

Question: With `COc1c(Nc2cc(Nc3cc(CO)ccn3)nc3[nH]n(C)c(=O)c23)cccc1-c1nnn(C)n1` [Compound I-6, 6-((4-(hydroxymethyl)pyridin-2-yl)amino)-4-((2-methoxy-3-(2-methyl-2H-tetrazol-5-yl)phenyl)amino)-2-methyl-1,2-dihydro-3H-pyrazolo[3,4-b]pyridin-3-one] as the molecule, how does the Kd [1] read?
Answer: > 10 nM

Question: With `COc1c(Nc2cc(Nc3ccc(N4CCCC4)cn3)nc3[nH]n(C)c(=O)c23)cccc1-c1nnn(C)n1` [Compound I-58, 4-((2-methoxy-3-(2-methyl-2H-tetrazol-5-yl)phenyl)amino)-2-methyl-6-((5-(pyrrolidin-1-yl)pyridin-2-yl)amino)-1,2-dihydro-3H-pyrazolo[3,4-b]pyridin-3-one] as the molecule, how does the Kd [1] read?
Answer: > 10 nM

Question: How did the Kd [1] turn out when `COc1cc(C(=O)N2CCCC2)ccc1Nc1cc(NC(=O)C2CC2)nc2[nH]n(C)c(=O)c12` [Compound I-70, N-(4-((2-methoxy-4-(pyrrolidine-1-carbonyl)phenyl)amino)-2-methyl-3-oxo-2,3-dihydro-1H-pyrazolo[3,4-b]pyridin-6-yl)cyclopropanecarboxamide] was run?
Answer: 0.1 to 0.5 nM

Question: With `CN(c1ccccc1Nc1cc(NC(=O)[C@@H]2C[C@@H]2F)nc2[nH]n(C)c(=O)c12)S(C)(=O)=O` [Compound I-216, (1S,2S)-2-fluoro-N-(2-methyl-4-((2-(N-methylmethylsulfonamido)phenyl)amino)-3-oxo-2,3-dihydro-1H-pyrazolo[3,4-b]pyridin-6-yl)cyclopropane-1-carboxamide] as the molecule, how does the Kd [1] read?
Answer: 0.1 to 0.5 nM

Question: For `Cn1[nH]c2nc(Nc3cncc(C#N)n3)cc(Nc3ccc(C4CC4)cc3S(C)(=O)=O)c2c1=O` [Compound I-212, 6-((4-((4-cyclopropyl-2-(methylsulfonyl)phenyl)amino)-2-methyl-3-oxo-2,3-dihydro-1H-pyrazolo[3,4-b]pyridin-6-yl)amino)pyrazine-2-carbonitrile], which Kd [1] is on record?
Answer: > 10 nM

Question: `Cn1[nH]c2nc(NC(=O)[C@H]3CC3(F)F)cc(Nc3ccc(C4CC4)cc3S(C)(=O)=O)c2c1=O` [Compound I-238, (R)-N-(4-((4-cyclopropyl-2-(methylsulfonyl)phenyl)amino)-2-methyl-3-oxo-2,3-dihydro-1H-pyrazolo[3,4-b]pyridin-6-yl)-2,2-difluorocyclopropane-1-carboxamide] was tested. Which Kd [1] did it give?
Answer: 0.1 to 0.5 nM

Question: For `COc1cccnc1Nc1cc(NC(=O)C2CC2)nc2[nH]n(C)c(=O)c12` [Compound I-223, N-(4-((3-methoxypyridin-2-yl)amino)-2-methyl-3-oxo-2,3-dihydro-1H-pyrazolo[3,4-b]pyridin-6-yl)cyclopropanecarboxamide], which Kd [1] is on record?
Answer: 1 to 10 nM

Question: `Cn1[nH]c2nc(Nc3ccc(C#N)cn3)cc(Nc3ccc(C4CC4)cc3S(C)(=O)=O)c2c1=O` [Compound I-213, 6-((4-((4-cyclopropyl-2-(methylsulfonyl)phenyl)amino)-2-methyl-3-oxo-2,3-dihydro-1H-pyrazolo[3,4-b]pyridin-6-yl)amino)nicotinonitrile] was tested. Which Kd [1] did it give?
Answer: 0.1 to 0.5 nM

Question: How did the Kd [1] turn out when `CCc1ccc(Nc2cc(NC(=O)C3CC3)nc3[nH]n(C)c(=O)c23)c(S(C)(=O)=O)c1` [Compound I-152, N-(4-((4-ethyl-2-(methylsulfonyl)phenyl)amino)-2-methyl-3-oxo-2,3-dihydro-1H-pyrazolo[3,4-b]pyridin-6-yl)cyclopropanecarboxamide] was run?
Answer: 0.5 to 1 nM

Question: `COc1c(Nc2cc(Nc3cc(C)nc(C)n3)nc3[nH]n(C)c(=O)c23)cccc1-c1ncn(C)n1` [Compound I-22, 6-((2,6-dimethylpyrimidin-4-yl)amino)-4-((2-methoxy-3-(1-methyl-1H-1,2,4-triazol-3-yl)phenyl)amino)-2-methyl-1,2-dihydro-3H-pyrazolo[3,4-b]pyridin-3-one] was tested. Which Kd [1] did it give?
Answer: 0.5 to 1 nM

Question: `COc1c(F)cccc1Nc1cc(Nc2cccc(C(F)(F)F)n2)nc2[nH]n(C)c(=O)c12` [Compound I-86, 4-((3-fluoro-2-methoxyphenyl)amino)-2-methyl-6-((6-(trifluoromethyl)pyridin-2-yl)amino)-1,2-dihydro-3H-pyrazolo[3,4-b]pyridin-3-one] was tested. Which Kd [1] did it give?
Answer: 1 to 10 nM

Question: `COCc1ccc(Nc2cc(Nc3ccc(OC)c(C(F)(F)F)n3)nc3[nH]n(C)c(=O)c23)c(OC)c1` [Compound I-104, 4-((2-methoxy-4-(methoxymethyl)phenyl)amino)-6-((5-methoxy-6-(trifluoromethyl)pyridin-2-yl)amino)-2-methyl-1,2-dihydro-3H-pyrazolo[3,4-b]pyridin-3-one] was tested. Which Kd [1] did it give?
Answer: > 10 nM

Question: With `COc1cc(CO)ccc1Nc1cc(NC(=O)C2CC2)nc2[nH]n(C)c(=O)c12` [Compound I-44] as the molecule, how does the Kd [1] read?
Answer: 1 to 10 nM

Question: Which Kd [1] does the source give for `COCc1ccnc(Nc2cc(Nc3cccc(F)c3OC)c3c(=O)n(C)[nH]c3n2)c1` [Compound I-76, 4-((3-fluoro-2-methoxyphenyl)amino)-6-((4-(methoxymethyl)pyridine-2-yl)amino)-2-methyl-1,2-dihydro-3H-pyrazolo[3,4-b]pyridin-3-one] here?
Answer: 1 to 10 nM

Question: Which Kd [2] does the source give for `COc1c(Nc2cc(Nc3cc(C)nc(C)n3)ncc2-c2nnc(CO)o2)cccc1-c1ncn(C)n1` [VIII-14, (5-(6-((2,6-dimethylpyrimidin-4-yl)amino)-4-((2-methoxy-3-(1-methyl-1H-1,2,4-triazol-3-yl)phenyl)amino)pyridin-3-yl)-1,3,4-oxadiazol-2-yl)methanol] here?
Answer: 0.1 to 1 nM

Question: For `COc1c(C#N)cccc1Nc1cc(Nc2ccc(C#N)cn2)nc2[nH]n(C)c(=O)c12` [Compound I-41], which Kd [1] is on record?
Answer: > 10 nM

Question: Which results are given for `CNc1nn(-c2cccc(-c3nnn(C)n3)c2OC)c2cc(NC(=O)C3CC3)ncc12` [XVI-3, N-(1-(2-methoxy-3-(2-methyl-2H-tetrazol-5-yl)phenyl)-3-(methylamino)-1H-pyrazolo[4,3-c]pyridin-6-yl)cyclopropanecarboxamide]?
Answer: Kd [2]: > 100 nM; Kd (Tyk2 JH2 Domain Binding Assay, read-out: Kd): 7000 to 10000 nM

Question: Which Kd [1] does the source give for `CCc1ncc(Nc2cc(Nc3cccc(F)c3OC)c3c(=O)n(C)[nH]c3n2)nc1C#N` [Compound I-148, 3-ethyl-6-((4-((3-fluoro-2-methoxyphenyl)amino)-2-methyl-3-oxo-2,3-dihydro-1H-pyrazolo[3,4-b]pyridin-6-yl)amino)pyrazine-2-carbonitrile] here?
Answer: > 10 nM

Question: How did the Kd [1] turn out when `Cc1ccc(Nc2cc(Nc3ccccc3S(C)(=O)=O)c3c(=O)n(C)[nH]c3n2)nn1` [Compound I-109, 2-methyl-6-((6-methylpyridazin-3-yl)amino)-4-((2-(methylsulfonyl)phenyl)amino)-1,2-dihydro-3H-pyrazolo[3,4-b]pyridin-3-one] was run?
Answer: 0.1 to 0.5 nM

Question: For `Cc1ccc(Nc2cc(Nc3ccc(F)cc3S(C)(=O)=O)c3c(=O)n(C)[nH]c3n2)nn1` [Compound I-198, 4-((4-fluoro-2-(methylsulfonyl)phenyl)amino)-2-methyl-6-((6-methylpyridazin-3-yl)amino)-1,2-dihydro-3H-pyrazolo[3,4-b]pyridin-3-one], which Kd [1] is on record?
Answer: 0.1 to 0.5 nM

Question: With `COc1cc(C(=O)N2CCOCC2)ccc1Nc1cc(NC(=O)C2CC2)nc2[nH]n(C)c(=O)c12` [Compound I-71, N-(4-((2-methoxy-4-(morpholine-4-carbonyl)phenyl)amino)-2-methyl-3-oxo-2,3-dihydro-1H-pyrazolo[3,4-b]pyridin-6-yl)cyclopropanecarboxamide] as the molecule, how does the Kd [1] read?
Answer: 0.5 to 1 nM

Question: With `COc1c(Nc2cc(Nc3ccc(C4CC4)cn3)nc3[nH]n(C)c(=O)c23)cccc1-c1nnn(C)n1` [Compound I-59, 6-((5-cyclopropylpyridin-2-yl)amino)-4-((2-methoxy-3-(2-methyl-2H-tetrazol-5-yl)phenyl)amino)-2-methyl-1,2-dihydro-3H-pyrazolo[3,4-b]pyridin-3-one] as the molecule, how does the Kd [1] read?
Answer: 0.1 to 0.5 nM

Question: How did the Kd [1] turn out when `COc1c(Cl)cccc1Nc1cc(Nc2ccc(C(F)F)c(C#N)n2)nc2[nH]n(C)c(=O)c12` [Compound I-156, 6-((4-((3-chloro-2-methoxyphenyl)amino)-2-methyl-3-oxo-2,3-dihydro-1H-pyrazolo[3,4-b]pyridin-6-yl)amino)-3-(difluoromethyl)picolinonitrile] was run?
Answer: > 10 nM

Question: For `Cc1ncc(Nc2cc(Nc3ccc(Cl)cc3S(C)(=O)=O)c3c(=O)n(C)[nH]c3n2)nc1C` [Compound I-207, 4-((4-chloro-2-(methylsulfonyl)phenyl)amino)-6-((5,6-dimethylpyrazin-2-yl)amino)-2-methyl-1,2-dihydro-3H-pyrazolo[3,4-b]pyridin-3-one], which Kd [1] is on record?
Answer: 1 to 10 nM

Question: Which Kd [1] does the source give for `COc1c(Nc2cc(Nc3cc(C)c(F)cn3)nc3[nH]n(C)c(=O)c23)cccc1-c1nnn(C)n1` [Compound I-8, 6-((5-fluoro-4-methylpyridin-2-yl)amino)-4-((2-methoxy-3-(2-methyl-2H-tetrazol-5-yl)phenyl)amino)-2-methyl-1,2-dihydro-3H-pyrazolo[3,4-b]pyridin-3-one] here?
Answer: < 0.1 nM

Reference: patent publication US10323036B2 (Nimbus Lakshmi, Inc., priority 2016, dated 2019)
